One experiment concerns Botrytis cinerea. The settings on record: application rate 500 ppm; paprika seedlings (Neusiedler Ideal Elite) sprayed before infection; 5 days; untreated plants 80% attack.
The test system of another experiment is Pyricularia oryzae. Type of experiment: in vivo. The settings on record: application rate 250 ppm; rice seedlings (Tai Nong 67) sprayed 24 h before infection; 6 days; untreated plants 70% attack.
For a further experiment, the system named is Fusarium culmorum. Nature of the experiment: Activity against Fusarium culmorum on wheat seedlings. It is filed as in vivo. Particulars: application rate 500 ppm; wheat seedlings (Kanzler) sprayed one day before infection; 6 days; untreated plants 60% attack. On the procedure: On the following day, the plants were infected with a spore suspension of Fusarium culmorum. The plants treated in this way were incubated for 6 days at 22-24° C. and a relative atmospheric humidity of >90%. Assessment was carried out visually.

With `COC(=O)N(OC)c1ccccc1COc1ncn(-c2ccccc2)n1` [Compound 2], the “attack (visual assessment)” value with Botrytis cinerea came to 5%; with Pyricularia oryzae, 3%; with Fusarium culmorum, 5%.

The values are drawn from patent publication US6514998B1 (priority 1994, dated 2003).
